Results from PMC6270165, “Synthesis and Biological Evaluation of 3-Benzisoxazolyl-4-indolylmaleimides as Potent, Selective Inhibitors of Glycogen Synthase Kinase-3β” (Molecules, 2013).

What was measured:
BRAF = molecular target: T1, BRAF (Homo sapiens, UniProt P15056); assay: BRAF kinase assay (HTRF); format: biochemical; details: read-out: BRAF inhibition% at 0.8 μg/mL (~2 μM)
T1 construct: purchased Carna Biosciences, Inc
Experimental: (§1) GSK3β belongs to CMGC family. Here, the other family members were used to evaluate the selectivity of GSK3β inhibitors, including PKC-epsilon (AGC family), JAK2 (TK family), Braf (TKL family), DRAK2 (CAMK family) and IKKβ (other family).The recombinant GST-GSK-3βprotein was expressed in Escherichia coli strain BL21-Codon Plus (DE3), purified by GSTrap affinity chromatography, and cleaved by thrombin. The GSK-3β kinase assay was carried out with the Z´-LYTETM Kinase Assay kit Ser/Thr 9 Peptide substrate (Invitrogen, Grand, NY, USA) in 10 μL reaction volume containing 50 nM enzyme, 30 μM ATP and 2 μM substrate peptide. Drak2 Proteins were presented by professor Jiang-ping Wu (Laboratory of Immunology, Research Centre, CHUM, Notre Dame Hospital, Pavilion DeSève). The Drak2 kinase reaction was performed in a final assay volume of 3.4 μL using the ADP-GLO Kinase Assay Kit (Promega, Madison, WI, USA), according the ADP-GLO protocol and read on an EnVision plate reader. The recombinant PKC-epsilon, IKKβ, and JAK2 with N-terminal His-tag were expressed using baculovirus expression system and purified with Ni-Beads. BRAF protein was from Carna Biosciences, Inc. (Kobe Port Island, Japan). And the related kinase reactions were performed in a final assay volume of 10 μL using the related HTRF Assay Kit (Cisbio, Codolet, France). Reactions were according the HTRF protocol and read on an EnVision plate reader. All reactions were carried out in triplicate. […] Data were expressed as mean ± SE.

PKC-epsilon = molecular target: T2, PKC-epsilon (Homo sapiens, UniProt Q02156); assay: PKC-epsilon kinase assay (HTRF); format: biochemical; details: read-out: PKC-epsilon inhibition% at 0.8 μg/mL (~2 μM)
T2 construct: His-tag (N); made in house
T2 sequence (Q02156 1-737): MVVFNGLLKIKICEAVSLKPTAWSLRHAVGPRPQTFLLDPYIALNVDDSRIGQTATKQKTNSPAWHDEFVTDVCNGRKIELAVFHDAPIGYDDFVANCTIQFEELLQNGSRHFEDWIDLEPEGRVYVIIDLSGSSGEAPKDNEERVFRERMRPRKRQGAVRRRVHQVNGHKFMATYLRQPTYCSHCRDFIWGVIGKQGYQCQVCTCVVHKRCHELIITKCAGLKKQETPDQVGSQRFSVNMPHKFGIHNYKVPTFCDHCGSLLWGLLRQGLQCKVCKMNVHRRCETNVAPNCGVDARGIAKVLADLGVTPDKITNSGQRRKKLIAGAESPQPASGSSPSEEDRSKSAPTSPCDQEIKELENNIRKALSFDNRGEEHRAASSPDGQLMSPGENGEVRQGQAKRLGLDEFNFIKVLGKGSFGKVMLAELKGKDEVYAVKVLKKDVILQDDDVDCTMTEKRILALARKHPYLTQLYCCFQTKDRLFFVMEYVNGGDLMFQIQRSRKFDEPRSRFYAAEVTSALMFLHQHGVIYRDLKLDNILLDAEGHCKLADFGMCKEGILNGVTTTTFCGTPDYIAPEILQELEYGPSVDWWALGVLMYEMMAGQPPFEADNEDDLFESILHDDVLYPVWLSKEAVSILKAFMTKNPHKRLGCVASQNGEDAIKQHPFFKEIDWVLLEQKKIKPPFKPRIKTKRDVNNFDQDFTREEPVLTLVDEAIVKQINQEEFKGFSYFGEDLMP
Experimental: as §1

T1 sequence (P15056 whole entry): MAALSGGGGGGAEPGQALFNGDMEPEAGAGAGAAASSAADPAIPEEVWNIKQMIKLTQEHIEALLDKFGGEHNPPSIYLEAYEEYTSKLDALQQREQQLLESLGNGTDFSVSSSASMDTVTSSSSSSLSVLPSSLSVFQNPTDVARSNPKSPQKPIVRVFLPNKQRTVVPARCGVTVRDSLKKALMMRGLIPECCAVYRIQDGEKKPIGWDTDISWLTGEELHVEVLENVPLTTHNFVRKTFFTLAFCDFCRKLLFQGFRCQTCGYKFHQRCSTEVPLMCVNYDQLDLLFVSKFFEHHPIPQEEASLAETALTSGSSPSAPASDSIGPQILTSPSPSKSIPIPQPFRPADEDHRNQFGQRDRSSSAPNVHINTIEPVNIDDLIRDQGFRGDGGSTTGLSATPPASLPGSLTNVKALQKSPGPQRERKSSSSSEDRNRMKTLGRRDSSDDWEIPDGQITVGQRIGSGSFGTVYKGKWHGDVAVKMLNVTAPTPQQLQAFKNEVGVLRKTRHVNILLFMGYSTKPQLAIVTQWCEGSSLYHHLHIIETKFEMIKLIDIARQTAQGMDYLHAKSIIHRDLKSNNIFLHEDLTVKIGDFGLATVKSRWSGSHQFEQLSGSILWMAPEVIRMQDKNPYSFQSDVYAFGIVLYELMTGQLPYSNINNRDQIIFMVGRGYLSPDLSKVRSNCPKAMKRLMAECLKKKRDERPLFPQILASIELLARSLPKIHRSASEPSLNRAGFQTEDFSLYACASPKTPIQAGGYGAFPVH

inhibition at 2 µM (BRAF): 3.4%
inhibition at 2 µM (PKC-epsilon): 12.1%
SMILES: O=C1NC(=O)C(c2cn(CCCN3CCOCC3)c3ccc(Br)cc23)=C1c1noc2ccccc12 [7c, 3-(Benzo[d]isoxazol-3-yl)-4-(5-bromo-1-(3-morpholinopropyl)-1H-indol-3-yl)-1H-pyrrole-2,5-dione]
